Measurements reported in PubChem BioAssay (NCI).
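A five-concentration, 48-hour dose response in 96-well plates underlies each endpoint, interpolated linearly between surrounding concentrations. Here, GI50 denotes the concentration required for 50% inhibition of growth. The concentration for full growth arrest is given as TGI.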

Legend:
Assay in all cases: NCI tumour cell line growth inhibition, 48 h
[1] = test system: SF-539 CNS
[2] = test system: COLO 205 colon
[3] = test system: EKVX NSCLC
[4] = test system: SF-295 CNS
[5] = test system: SNB-19 CNS
[6] = test system: HOP-92 NSCLC
[7] = test system: MCF7 breast
[8] = test system: T-47D breast

| SMILES | TGI [1] [µM] | TGI [2] [µM] | TGI [3] [µM] | TGI [4] [µM] | TGI [5] [µM] | TGI [6] [µM] | GI50 [1] [µM] | GI50 [2] [µM] | GI50 [3] [µM] | GI50 [4] [µM] | GI50 [7] [µM] | TGI [7] [µM] | GI50 [5] [µM] | GI50 [6] [µM] | GI50 [8] [µM] | TGI [8] [µM] |
| --- | --- | --- | --- | --- | --- | --- | --- | --- | --- | --- | --- | --- | --- | --- | --- | --- |
| CCCCCCCCCc1cc(=O)c2c(O)cccc2o1 | > 100 | > 100 | > 100 | > 100 | > 100 | > 100 | – | – | – | – | – | – | – | – | – | – |
| COc1ccc(C2C(C#N)=C(N)OC3=C2COc2ccc(F)cc23)cc1OC (stereo not drawn) | 75.4 | > 100 | > 100 | 67.5 | > 100 | > 100 | 21.5 | 19.1 | 17.8 | 27.5 | 32.9 | > 100 | 73.8 | 47.6 | – | – |
| NC(=O)C(=CNc1nc(-c2ccc(Cl)c(Cl)c2)cs1)C(N)=O | > 100 | > 100 | > 100 | > 100 | > 100 | > 100 | 46.4 | > 100 | 43.8 | 37.1 | 80 | > 100 | > 100 | > 100 | > 100 | > 100 |
| O=C(CCCN1CC=C(n2c(=O)[nH]c3ccccc32)CC1)c1ccc(F)cc1 | – | 75.5 | 80.1 | – | – | > 100 | – | 25 | 16.7 | – | 31.1 | > 100 | – | 45.3 | 19.7 | 73.6 |
| CC(=O)Oc1ccccc1C(=O)N=C1[Se]CCN1C(=O)c1ccccc1OC(C)=O | 3.21 | 4.07 | – | 2.8 | 4.31 | 3.58 | 1.06 | 1.84 | – | 1.43 | 1.12 | 5.06 | 1.23 | 1.85 | 1.84 | 5.06 |
| Cc1cn2c(/C=C3/C(=O)Nc4ccccc43)c(-c3ccc(Cl)cc3)nc2s1 | 11.9 | 22.2 | 18.8 | 17.4 | 13.5 | – | 5.8 | 10.4 | 8.73 | 9.22 | 6.9 | 19.7 | 7.01 | – | – | – |
| CC(=O)O[C@@H]1C[C@]2(C(C)C)O[C@@]1(C)[C@@H]1CCC(C)=C1[C@@H]2OC(=O)/C=C/c1ccccc1 | > 100 | > 100 | > 100 | > 100 | > 100 | – | > 100 | 31.4 | 20 | 38.6 | 19.5 | > 100 | 85.3 | – | 19.7 | > 100 |
| CSC1(CC(=O)N(C)C)C(=O)Nc2ccccc21 (stereo not drawn) | > 100 | > 100 | > 100 | > 100 | > 100 | – | – | – | – | – | – | > 100 | – | – | – | > 100 |
| Cc1c(C2Nc3ccccc3C2C)[nH]c2ccccc12 (stereo not drawn) | 25.1 | 22.5 | – | 28.1 | 38 | – | 8.72 | 10.5 | – | 11.5 | 4.26 | 27.8 | 13.8 | – | 6.16 | 24 |
| O=C(Nc1cccc(Cl)c1Cl)c1cccc(NC2=C(Cl)C(=O)N(Cc3ccccc3)C2=O)c1 | 40.6 | > 100 | 89.2 | > 100 | > 100 | – | 9.87 | > 100 | 34.2 | 35.7 | 11.3 | > 100 | > 100 | – | > 100 | > 100 |
| CC(=O)Oc1ccccc1C(=O)N=C1[Se]CCCN1C(=O)c1ccccc1OC(C)=O | 6.28 | 10.1 | – | – | – | – | 2.66 | 3.08 | – | – | 2.79 | 10.8 | – | – | 3.44 | 13.5 |
| O=c1[nH]c2cc(Cl)ccc2n1C1CCN(CCCC(c2ccc(F)cc2)c2ccc(F)cc2)CC1 | 3 | 2.6 | 3.38 | – | 3.79 | 2.41 | 1.64 | 1.23 | 1.45 | – | 1.35 | 2.84 | 1.83 | 1.01 | 1.83 | 3.79 |
| CC(=O)c1c(CBr)n([O-])c2ccccc2[n+]1=O | 24 | 3.63 | 30.3 | 43.8 | 40 | 24 | 11.2 | 1.81 | 13.2 | 19.8 | – | – | 18.8 | 7.36 | 2.87 | 11.4 |
| CN(C)c1ccc2nc3ccc(=O)cc-3sc2c1 | – | 3.81 | – | 10.9 | > 100 | 29.5 | 0.287 | 0.38 | – | 1.52 | 0.445 | 5.75 | 2.63 | 1.46 | 1 | > 100 |
| O=C1c2ccn(CCCCNC(CO)(CO)CO)c2C(=O)c2c1c(O)c1ccccc1c2O | – | > 23.6 | 74 | 2.24 | 22.6 | 19.6 | – | 0.912 | 24.8 | 0.719 | – | – | 3.33 | 1.89 | 2.76 | > 22.1 |
| COc1cc2cn3c4ccc(O)cc4[nH]c(=O)c3c2cc1OC | 0.296 | 0.429 | 2 | – | 1.94 | 7.72 | 0.0176 | 0.0201 | 0.0607 | – | 0.0341 | 1.62 | 0.0245 | 2.14 | 0.0199 | 2.05 |
| CN1CCc2c(Sc3ccc(C(=O)NO)cc3)c3ccccc3n2C1 | 3.11 | 4.52 | – | 4.84 | 6.79 | 6.88 | 1.42 | 1.92 | – | 2.13 | 2.7 | 13.6 | 2.12 | 2 | 1.62 | 5.84 |
| O=C(CSc1nnc(-c2ccccc2NC(=O)C(F)(F)F)c(=O)[nH]1)NC(=O)Nc1ccccc1 | > 100 | > 100 | > 100 | > 100 | > 100 | > 100 | – | – | – | – | – | – | – | – | – | – |
| CN(C)Cc1c[nH]c2c1C(=O)c1c(c(O)c3ccccc3c1O)C2=O | – | > 100 | 5.28 | 17.1 | 43.4 | 31.7 | – | 0.0386 | 0.603 | 3.22 | 3.22 | 15.5 | 8.94 | 13.6 | 11.4 | > 100 |
